System: neuronal cells
Experiment: Toxicogenomic DNA chip test: gene expression level (RES) in cells exposed to the compound compared to unexposed cells
Format: cell-based
Excerpt: One wishes to carry out the evaluation of the toxicity of a collection of (15) pesticides using a toxicogenomic analysis of the impact of these pesticides on neuronal cells, according to 4 modes of exposure of the cells to the compounds:
DNA chips built specifically to test the expression level of the 51 genes in cells under study, each chip being configured only for one gene in our case, each chip allowing to carry out for each gene a redundant number of measurements (16) in order to stabilize the levels of expression by analysing the results on average. The spots on the chips are numbered sp1 to sp16.
An automated device D5 allowing, on signal of execution of the C2 test, to take a E1 sample of the cell culture C (non exposed) and a E2 sample of the cell culture C exposed to the compound by the device described previously under the conditions specified with the configuration, then to use the D1 device to select a DNA chip corresponding to the gene specified at the time of the configuration, and to put the samples E1 and E2 thus obtained in the presence of the aforementioned DNA chip according to the methods described in the D1 device,
The result of a test, RES, transmitted by the Resource Unit to the PC, is a raw numerical value which indicates the expression level of the gene indicated in the configuration, for the cell exposed to the compound under the conditions of concentration and exposure duration specified in the configuration, compared to the expression level of the same gene in an unexposed cell of identical nature.
The following results are based on 3 evaluations, each using a different strategy, the target cells being neuronal cells, the mode of exposure being Expo11.
The results presented in table 2 show the values obtained in (052) for the evaluation of Paraquat according to the 4 modes Expo11, Expo12, Expo21, Expo22 carried out. The missing data are not relevant (ranging between 0.5 and 2 strictly).

[1] = Neuron, C2 (IC50/10), 24 h (Expo21)
[2] = Neuron, C2 (IC50/10), 48 h (Expo22)
[3] = neuronal cells, Expo11 (IC50, 24 h), strategy of selection by class

C[n+]1ccc(-c2cc[n+](C)cc2)cc1 [Paraquat]
ALB gene expression level RES (exposed/unexposed cells) [1]: 0.34 | APAF1 gene expression level RES (exposed/unexposed cells) [1]: 0.20 | AR gene expression level RES (exposed/unexposed cells) [1]: 0.08 | ATF6 gene expression level RES (exposed/unexposed cells) [1]: 0.17 | ATM gene expression level RES (exposed/unexposed cells) [1]: 0.11 | BAX gene expression level RES (exposed/unexposed cells) [1]: 0.09 | BCL2 gene expression level RES (exposed/unexposed cells) [1]: 0.14 | BZRP gene expression level RES (exposed/unexposed cells) [1]: 0.14 | C12ORF8 gene expression level RES (exposed/unexposed cells) [1]: 0.22 | CALR gene expression level RES (exposed/unexposed cells) [1]: 0.38 | CDC25C gene expression level RES (exposed/unexposed cells) [1]: 0.37 | CDK4 gene expression level RES (exposed/unexposed cells) [1]: 0.29 | CDKN1A gene expression level RES (exposed/unexposed cells) [1]: 0.13 | CREB1 gene expression level RES (exposed/unexposed cells) [1]: 0.29 | CTSB gene expression level RES (exposed/unexposed cells) [1]: 0.20 | CTSD gene expression level RES (exposed/unexposed cells) [1]: 0.05 | EGF gene expression level RES (exposed/unexposed cells) [1]: 0.21 | EPHX1 gene expression level RES (exposed/unexposed cells) [1]: 0.19 | FOS gene expression level RES (exposed/unexposed cells) [1]: 0.12 | GADD45A gene expression level RES (exposed/unexposed cells) [1]: 0.20 | GPX1 gene expression level RES (exposed/unexposed cells) [1]: 0.09 | GSS gene expression level RES (exposed/unexposed cells) [1]: 0.28 | GSTM3 gene expression level RES (exposed/unexposed cells) [1]: 0.36 | HOXD1 gene expression level RES (exposed/unexposed cells) [1]: 0.11 | HSPA5 gene expression level RES (exposed/unexposed cells) [1]: 0.33 | HSPA9B gene expression level RES (exposed/unexposed cells) [1]: 0.16 | JUN gene expression level RES (exposed/unexposed cells) [1]: 0.33 | MDM2 gene expression level RES (exposed/unexposed cells) [1]: 0.05 | NFKB1 gene expression level RES (exposed/unexposed cells) [1]: 0.26 | NOS2A gene expression level RES (exposed/unexposed cells) [1]: 0.30 | PARA gene expression level RES (exposed/unexposed cells) [1]: 0.04 | PGR gene expression level RES (exposed/unexposed cells) [1]: 0.12 | RAD50 gene expression level RES (exposed/unexposed cells) [1]: 0.35 | RAD51 gene expression level RES (exposed/unexposed cells) [1]: 0.22 | SOD1 gene expression level RES (exposed/unexposed cells) [1]: 0.24 | TF1 gene expression level RES (exposed/unexposed cells) [1]: 0.53 | THBS1 gene expression level RES (exposed/unexposed cells) [1]: 0.08 | TP53 gene expression level RES (exposed/unexposed cells) [1]: 0.31 | TUBA1 gene expression level RES (exposed/unexposed cells) [1]: 0.03 | XBP1 gene expression level RES (exposed/unexposed cells) [1]: 0.24 | A2M gene expression level RES (exposed/unexposed cells) [2]: 0.04 | AITCH gene expression level RES (exposed/unexposed cells) [2]: 0.03 | ALB gene expression level RES (exposed/unexposed cells) [2]: 0.02 | APAF1 gene expression level RES (exposed/unexposed cells) [2]: 0.05 | AR gene expression level RES (exposed/unexposed cells) [2]: 0.05 | ATF6 gene expression level RES (exposed/unexposed cells) [2]: 0.06 | ATM gene expression level RES (exposed/unexposed cells) [2]: 0.04 | BAX gene expression level RES (exposed/unexposed cells) [2]: 0.05 | BCL2 gene expression level RES (exposed/unexposed cells) [2]: 0.03 | BZRP gene expression level RES (exposed/unexposed cells) [2]: 0.04 | C12ORF8 gene expression level RES (exposed/unexposed cells) [2]: 0.04 | CALR gene expression level RES (exposed/unexposed cells) [2]: 0.11 | CDC25C gene expression level RES (exposed/unexposed cells) [2]: 0.05 | CDK4 gene expression level RES (exposed/unexposed cells) [2]: 0.06 | CDKN1A gene expression level RES (exposed/unexposed cells) [2]: 0.02 | CREB1 gene expression level RES (exposed/unexposed cells) [2]: 0.05 | CTSB gene expression level RES (exposed/unexposed cells) [2]: 0.06 | CTSD gene expression level RES (exposed/unexposed cells) [2]: 0.03 | EGF gene expression level RES (exposed/unexposed cells) [2]: 0.05 | EPHX1 gene expression level RES (exposed/unexposed cells) [2]: 0.08 | FOS gene expression level RES (exposed/unexposed cells) [2]: 0.05 | GADD45A gene expression level RES (exposed/unexposed cells) [2]: 0.04 | GPX1 gene expression level RES (exposed/unexposed cells) [2]: 0.02 | GSS gene expression level RES (exposed/unexposed cells) [2]: 0.03 | GSTM3 gene expression level RES (exposed/unexposed cells) [2]: 0.06 | HOXD1 gene expression level RES (exposed/unexposed cells) [2]: 0.05 | HSPA5 gene expression level RES (exposed/unexposed cells) [2]: 0.07 | HSPA9B gene expression level RES (exposed/unexposed cells) [2]: 0.06 | JUN gene expression level RES (exposed/unexposed cells) [2]: 0.05 | MDM2 gene expression level RES (exposed/unexposed cells) [2]: 0.06 | NFKB1 gene expression level RES (exposed/unexposed cells) [2]: 0.05 | NOS2A gene expression level RES (exposed/unexposed cells) [2]: 0.06 | PARA gene expression level RES (exposed/unexposed cells) [2]: 0.05 | PGR gene expression level RES (exposed/unexposed cells) [2]: 0.04 | RAD50 gene expression level RES (exposed/unexposed cells) [2]: 0.06 | RAD51 gene expression level RES (exposed/unexposed cells) [2]: 0.06 | SOD1 gene expression level RES (exposed/unexposed cells) [2]: 0.04 | TF1 gene expression level RES (exposed/unexposed cells) [2]: 0.05 | THBS1 gene expression level RES (exposed/unexposed cells) [2]: 0.06 | TP53 gene expression level RES (exposed/unexposed cells) [2]: 0.05 | TUBA1 gene expression level RES (exposed/unexposed cells) [2]: 0.04 | XBP1 gene expression level RES (exposed/unexposed cells) [2]: 0.06 | A2M marker test: relevant level of expression (RES <=0.5 or >=2) [3]: relevant result | CDKN1A marker test: relevant level of expression (RES <=0.5 or >=2) [3]: relevant result was found | CYP19A1 marker test: relevant level of expression (RES <=0.5 or >=2) [3]: did not provide any relevant result | SOD1 marker test: relevant level of expression (RES <=0.5 or >=2) [3]: without success

Source: US20080228408A1, “Method for Determining the State of an Ensemble of Cells and System for the Implementation of the Method” (priority 2005, published 2008)
